For orientation: IC50 means the concentration needed to halve the response being measured.

A short description of assay [1]: Cytotoxicity against human fibroblasts after 2 days by SRB assay. The class given is cell-based. The conditions noted are these: Fibroblast, 48 h. (In general: The SRB assay estimates cell density from bound dye.)
A further assay has as its system MDA-MB-468. The experiment in a line: Cytotoxicity against human MDA-MB-468 cells after 2 days by SRB assay. The class given is functional, cell-based. The conditions noted are these: MDA-MB-468, 48 h.
Another assay concerns NCI-H460. Nature of the assay: Cytotoxicity against human NCI-H460 cells after 2 days by SRB assay. The format is functional, cell-based. The conditions noted are these: NCI-H460, 48 h.
Assay [2] is described as follows: Cytotoxicity against human HBT-174 cells after 2 days by SRB assay. The class given is functional, cell-based. The conditions noted are these: HBT-174, 48 h.
In another assay the test system is MDA-MB-231. Nature of the assay: Cytotoxicity against human MDA-MB-231 cells after 2 days by SRB assay. The format is functional, cell-based. The conditions noted are these: MDA-MB-231, 48 h.
For assay [3], the system named is MCF7. The experiment in a line: Selectivity index, ratio of IC50 for human fibroblasts to IC50 for human MCF7 cells.
In assay [4] the test system is MDA-MB-453. Nature of the assay: Cytotoxicity against human MDA-MB-453 cells after 2 days by SRB assay. The class given is functional, cell-based. The conditions noted are these: MDA-MB-453, 48 h.
In assay [5] the test system is MCF7. Nature of the assay: Cytotoxicity against human MCF7 cells after 2 days by SRB assay. The class given is functional, cell-based. The conditions noted are these: MCF7, 48 h.
A short description of assay [6]: Selectivity index, ratio of IC50 for human fibroblasts to IC50 for human HBT-174 cells.
Assay [7] relates to MCF7. The experiment in a line: Reduction of cyclin-D1 gene expression in human MCF7 cells at 5 uM after 24 hrs by RT-PCR analysis relative to control. The class given is functional. Set-up: scale not given: the % may be the effect or the level left.
For another assay, the system named is HBT-174. Nature of the assay: Inhibition of colony formation in human HBT-174 cells assessed as decrease in colony size and number of colony at 0.5 to 5 uM treated every 3 days for 10 days by SRB staining. The class given is functional, cell-based.
The test system of assay [8] is MDA-MB-453. The experiment in a line: Antimammosphere formation activity in human MDA-MB-453 cells assessed as ALDH positive cells at 10 uM after 4 days relative to control. The format is functional.
Assay [9] concerns MDA-MB-453. Nature of the assay: Antimammosphere formation activity in human MDA-MB-453 cells assessed as ALDH positive cells at 1 uM after 4 days relative to control. The class given is functional.
The subject of assay [10] is MCF7. Nature of the assay: Reduction of Bcl-2 gene expression in human MCF7 cells at 5 uM after 24 hrs by RT-PCR analysis relative to control. More on the design: scale not given: the % may be the effect or the level left. The class given is functional.
The subject of assay [11] is MCF7. Nature of the assay: Reduction of p53 gene expression in human MCF7 cells at 5 uM after 24 hrs by RT-PCR analysis relative to control. More on the design: scale not given: the % may be the effect or the level left. The format is functional.
Assay [12] relates to MCF7. The experiment in a line: Reduction of Bcl-xL gene expression in human MCF7 cells at 5 uM after 24 hrs by RT-PCR analysis relative to control. The class given is functional. Set-up: scale not given: the % may be the effect or the level left.
Assay [13] concerns MDA-MB-453. The experiment in a line: Antimammosphere formation activity in human MDA-MB-453 cells assessed as ALDH positive cells at 5 uM after 4 days relative to control. The format is functional.

Active and inactive are the calls of the source. No cut-off for these calls is given here.

Consider `Oc1ccc(O)c(CN[C@@H]2CCCC[C@H]2NCc2cc(O)ccc2O)c1`, for which the IC50 in assay [1] turned out to be 75 µM; in the assay with MDA-MB-468, 5.9 µM; in the assay with NCI-H460, 2.4 µM; in [2] it was 8 µM; in the assay with MDA-MB-231, 3.8 µM; in the assay with MDA-MB-453 [4] it was 5.2 µM. This compound also showed an IC50 with MCF7 [5] of 5.2 µM. The “Ratio IC50” value with MCF7 [3] was 14.4; in [6] it was 9.4.
In the case of `Cc1ccc(O)c(CN[C@@H]2CCCC[C@H]2NCc2cc(C)ccc2O)c1`, the IC50 was 37 µM in [1] and 3.6 µM with MCF7 [5]. Also, the “Ratio IC50” value in the assay with MCF7 [3] came out at 10.3.
As for `Oc1ccc(CN[C@@H]2CCCC[C@H]2NCc2ccc(O)c(O)c2)cc1O`, the IC50 came to 32 µM in [1]; 1.2 µM with MDA-MB-468; 0.9 µM with NCI-H460; 3.3 µM in assay [2]; 1.4 µM in the assay on MDA-MB-231; 1.8 µM in the assay with MDA-MB-453 [4]. This compound showed an IC50 with MCF7 [5] of 2.5 µM. In addition, the “Ratio IC50” value in the assay with MCF7 [3] is reported as 12.8; in [6], 9.7.
For `Oc1cccc(CN[C@@H]2CCCC[C@H]2NCc2cccc(O)c2O)c1O`, the Activity with MCF7 [7] is 24.8%; in the assay on MDA-MB-453 [8] it was <5%; with MDA-MB-453 [9], 90%; with MCF7 [10], 15.6%; with MCF7 [11] it was 33.1%; in the assay on MCF7 [12] it was 22.2%. In addition, in the assay with MDA-MB-453 [13], the Activity was determined as 25%. Moreover, the IC50 was 106 µM in assay [1]; 3.3 µM with MDA-MB-468; 1.8 µM in the assay on NCI-H460; 6.8 µM in assay [2]; 2.4 µM in the assay on MDA-MB-231; 4.6 µM in the assay with MDA-MB-453 [4]. The IC50 in the assay on MCF7 [5] is 4.8 µM. Further, the inhibition result in the assay with HBT-174 is “Active”. Besides, the “Ratio IC50” value is 22.1 in the assay with MCF7 [3] and 15.6 in assay [6].
Regarding `O=C(O)c1ccc(O)c(CN[C@@H]2CCCC[C@H]2NCc2cc(C(=O)O)ccc2O)c1`, the 50% inhibitory concentration (IC50) in assay [1] amounted to 108 µM; with MCF7 [5] it was 8.4 µM. Besides, in the assay on MCF7 [3], the “Ratio IC50” value is 12.8.
For `Oc1ccc(CN[C@@H]2CCCC[C@H]2NCc2ccc(O)cc2O)c(O)c1`, the IC50 in [1] worked out at 82 µM; in the assay with MDA-MB-468 it was 4.4 µM; in the assay with NCI-H460, 2.2 µM; in [2] it was 8.2 µM; with MDA-MB-231, 4 µM; in the assay on MDA-MB-453 [4], 4.5 µM. The IC50 in the assay with MCF7 [5] worked out at 6 µM. For the same compound, the “Ratio IC50” value in the assay on MCF7 [3] is listed as 13.7; in [6], 10.

For the origin of these results see ChEMBL document CHEMBL3217542, “Chiral diaminocyclohexane coupling polyphenols: A new class of anticancer agents” (Medchemcomm, 2012).
